Assay results from patent publication US6642227B2, “Inhibitors of c-Jun N-terminal kinases (JNK) and other protein kinases” (Vertex Pharmaceuticals Incorporated, priority 2001, dated 2003).

Key:
human Src kinase = molecular target: T1, human Src kinase (Homo sapiens, UniProt P12931); assay: Src inhibition assay (A: radioactivity-based or B: spectrophotometric coupled-enzyme assay); type: biochemical; details: assay A or B not specified; read-out: Src Activity (Ki class A-C)
T1 construct: full length recombinant human Src kinase; purchased Upstate Biotechnology 14-117; host or cells: baculovirus-infected cells
Method: The compounds were evaluated as inhibitors of human Src kinase using either a radioactivity-based assay or spectrophotometric assay.
The compounds were assayed as inhibitors of full length recombinant human Src kinase (from Upstate Biotechnology, cat. no. 14-117) expressed and purified from baculo viral cells. Src kinase activity was monitored by following the incorporation of ^33p from ATP into the tyrosine of a random poly Glu-Tyr polymer substrate of composition, Glu:Tyr=4:1 (Sigma, cat. no. P-0275). The following were the final concentrations of the assay components: 0.05 M HEPES, pH 7.6, 10 mM MgCl2, 2 mM DTT, 0.25 mg/ml BSA, 10 μM ATP (1-2 uCi ^33P-ATP per reaction), 5 mg/ml poly Glu-Tyr, and 1-2 units of recombinant human Src kinase. In a typical assay, all the reaction components with the exception of ATP were pre-mixed and aliquoted into assay plate wells.
Inhibitors dissolved in DMSO were added to the wells to give a final DMSO concentration of 2.5%. The assay plate was incubated at 30° C. for 10 min before initiating the reaction with ^33P-ATP. After 20 min of reaction, the reactions were quenched with 150 μl of 10% trichloroacetic acid (TCA) containing 20 mM Na3PO4. The quenched samples were then transferred to a 96-well filter plate (Whatman, UNI-Filter GF/F Glass Fiber Filter, cat no. 7700-3310) installed on a filter plate vacuum manifold. Filter plates were washed four times with 10% TCA containing 20 mM Na3PO4 and then 4 times with methanol. 200 μl of scintillation fluid was then added to each well. The plates were sealed and the amount of radioactivity associated with the filters was quantified on a TopCount scintillation counter. The radioactivity incorporated was plotted as a function of the inhibitor concentration. The data was fitted to a competitive inhibition kinetics model to get the Ki for the compound.
(§1) The ADP produced from ATP by the human recombinant Src kinase-catalyzed phosphorylation of poly Glu-Tyr substrate was quanitified using a coupled enzyme assay (Fox et al (1998) Protein Sci 7, 2249). In this assay one molecule of NADH is oxidised to NAD for every molecule of ADP produced in the kinase reaction. The disappearance of NADH can be conveniently followed at 340 nm.
(§2) The following were the final concentrations of the assay components: 0.025 M HEPES, pH 7.6, 10 mM MgCl2, 2 mM DTT, 0.25 mg/ml poly Glu-Tyr, and 25 nM of recombinant human Src kinase. Final concentrations of the components of the coupled enzyme system were 2.5 mM phosphoenolpyruvate, 200 μM NADH, 30 μg/ml pyruvate kinase and 10 μg/ml lactate dehydrogenase.
(§3) In a typical assay, all the reaction components with the exception of ATP were pre-mixed and aliquoted into assay plate wells. Inhibitors dissolved in DMSO were added to the wells to give a final DMSO concentration of 2.5%. The assay plate was incubated at 30 C. for 10 min before initiating the reaction with 100 μM ATP. The absorbance change at 340 nm with time, the rate of the reaction, was monitored on a molecular devices plate reader. The data of rate as a function of the inhibitor concentration was fitted to compettive inhibition kinetics model to get the Ki for the compound.

human Lck kinase = human Lck kinase (UniProt P06239); assay: Lck inhibition assay (A: radioactivity-based or B: spectrophotometric coupled-enzyme assay); type: biochemical; details: read-out: Lck Activity (Ki rating)
Method: The compounds were evaluated as inhibitors of human Lck kinase using either a radioactivity-based assay or spectrophotometric assay.
The compounds were assayed as inhibitors of full length bovine thymus Lck kinase (from Upstate Biotechnology, cat. no. 14-106) expressed and purified from baculo viral cells. Lck kinase activity was monitored by following the incorporation of ^33p from ATP into the tyrosine of a random poly Glu-Tyr polymer substrate of composition, Glu:Tyr=4:1 (Sigma, cat. no. P-0275). The following were the final concentrations of the assay components: 0.025 M HEPES, pH 7.6, 10 mM MgCl2, 2 mM DTT, 0.25 mg/ml BSA, 10 μM ATP (1-2 μCi ^33P-ATP per reaction), 5 mg/ml poly Glu-Tyr, and 1-2 units of recombinant human […] kinase. In a typical assay, all the reaction components with the exception of ATP were pre-mixed and aliquoted into assay plate wells. Inhibitors dissolved in DMSO were added to the wells to give a final DMSO concentration of 2.5%. The assay plate was incubated at 30 C. for 10 min before initiating the reaction with ^33P-ATP. After 20 min of reaction, the reactions were quenched with 150 μl of 10% trichloroacetic acid (TCA) containing 20 mM Na3PO4. The quenched samples were then transferred to a 96-well filter plate (Whatman, UNI-Filter GF/F Glass Fiber Filter, cat no. 7700-3310) installed on a filter plate vacuum manifold. Filter plates were washed four times with 10% TCA containing 20 mM Na3PO4 and then 4 times with methanol. 200 μl of scintillation fluid was then added to each well. The plates were sealed and the amount of radioactivity associated with the filters was quantified on a TopCount scintillation counter. The radioactivity incorporated was plotted as a function of the inhibitor concentration. The data was fitted to a competitive inhibition kinetics model to get the Ki for the compound.
as §1, with “Lck” for “Src”
as §2, with “DTT, 5” for “DTT, 0.25”, “and 50” for “and 25”, “human Lck” for “human Src”
as §3, with “30°” for “30”, “150” for “100”, “competitive” for “compettive”

T1 sequence (P12931 whole entry): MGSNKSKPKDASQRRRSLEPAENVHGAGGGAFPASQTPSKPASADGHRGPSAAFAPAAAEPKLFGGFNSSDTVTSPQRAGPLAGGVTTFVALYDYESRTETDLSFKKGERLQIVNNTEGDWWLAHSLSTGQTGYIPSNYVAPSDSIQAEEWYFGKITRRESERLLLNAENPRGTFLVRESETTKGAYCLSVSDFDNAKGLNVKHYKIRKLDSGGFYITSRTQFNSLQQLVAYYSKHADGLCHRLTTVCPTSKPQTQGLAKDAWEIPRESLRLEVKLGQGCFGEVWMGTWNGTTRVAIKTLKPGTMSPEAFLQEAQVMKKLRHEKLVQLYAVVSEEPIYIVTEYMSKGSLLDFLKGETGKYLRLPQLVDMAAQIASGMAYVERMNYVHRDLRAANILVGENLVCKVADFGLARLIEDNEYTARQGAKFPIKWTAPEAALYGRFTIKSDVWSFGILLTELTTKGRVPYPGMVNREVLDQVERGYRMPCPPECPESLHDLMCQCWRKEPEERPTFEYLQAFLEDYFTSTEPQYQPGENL

Structure (SMILES) | Ki (human Src kinase) | Ki (human Lck kinase)
CSc1sc(-c2nc(Nc3cccc(OCCCN4CCNCC4)c3)ncc2C)c(-c2cccnc2)c1C#N [VI-118] | 0.1 to 1 µM | < 0.1 µM
CCCCS(=O)(=O)Nc1cccc(Nc2nccc(-c3sc(SC)c(C#N)c3-c3cccnc3)n2)c1 [VI-141] | < 0.1 µM | < 0.1 µM
CSc1sc(-c2ccnc(Nc3cccc(OCCCNCCCO)c3)n2)c(-c2cccc(OCc3ccccc3)c2)c1C#N [VI-133] | < 0.1 µM | < 0.1 µM
COCCNCCCOc1cccc(Nc2ncc(C)c(-c3sc(SC)c(C#N)c3-c3cccnc3)n2)c1 [VI-20] | < 0.1 µM | < 0.1 µM
CSc1sc(-c2nc(Nc3cccc(OCCCN4CCC[C@H]4CO)c3)ncc2C)c(-c2cccnc2)c1C#N [VI-24] | < 0.1 µM | < 0.1 µM
N#Cc1c(O)sc(-c2ccnc(Nc3cccc(OCc4ccccc4)c3)n2)c1-c1ccccc1 [IIa-42, 5-[2-(3-Benzyloxy-phenylamino)-pyrimidin-4-yl]-2-hydroxy-4-phenyl-thiophene-3-carbonitrile] | < 0.1 µM | < 0.1 µM
CCNc1sc(-c2ccnc(Nc3cccc(OC)c3)n2)c(-c2ccccc2)c1C(=O)OCC [IIa-90, 2-Ethylamino-5-[2-(3-methoxy-phenylamino)-pyrimidin-4-yl]-4-phenyl-thiophene-3-carboxylic acid ethyl ester] | > 1 µM | 0.1 to 1 µM
CSc1sc(-c2nc(Nc3cccc(OCCN4CCC(CO)CC4)c3)ncc2C)c(-c2cccnc2)c1C#N [VI-120] | < 0.1 µM | < 0.1 µM
CSc1sc(-c2nc(Nc3cccc(OCCNCCO)c3)ncc2C)c(-c2cccnc2)c1C#N [VI-119] | 0.1 to 1 µM | < 0.1 µM
CSc1sc(-c2ccnc(Nc3cccc(OCCCNCCCO)c3)n2)c(-c2cccc(O)c2)c1C#N [VI-135] | < 0.1 µM | < 0.1 µM
CCN(CC)CCC(=O)Nc1cccc(Nc2nccc(-c3sc(SC)c(C#N)c3-c3cccnc3)n2)c1 [VI-140] | – | < 0.1 µM
CSc1sc(-c2ccnc(Nc3cccc(OCCCN4CCN(CCO)CC4)c3)n2)c(-c2cccc(OCc3ccccc3)c2)c1C#N [VI-126] | – | 0.1 to 1 µM
CSc1sc(-c2ccnc(Nc3cccc(OCCCNCCO)c3)n2)c(-c2cccc(O)c2)c1C#N [VI-134] | < 0.1 µM | < 0.1 µM
CSc1sc(-c2ccnc(Nc3cccc(OCCCN4CCCC(O)C4)c3)n2)c(C2CCCCC2)c1C#N (stereo not shown) [VI-8] | – | < 0.1 µM
CSc1sc(-c2ccnc(Nc3cccc(OCCCN(C)CCO)c3)n2)c(C2CCCCC2)c1C#N [VI-1] | – | < 0.1 µM
CSc1sc(-c2ccnc(Nc3cccc(OCCCN4CCSCC4)c3)n2)c(C2CCCCC2)c1C#N [VI-16] | – | < 0.1 µM
CSc1sc(-c2ccnc(Nc3cccc(OCCCn4ccnc4)c3)n2)c(C2CCCCC2)c1C#N [VI-13] | – | < 0.1 µM
CSc1sc(-c2ccnc(Nc3cccc(OCCCN4CCCC4)c3)n2)c(-c2cccnc2)c1C#N [VI-122] | – | < 0.1 µM
CSc1sc(-c2ccnc(Nc3cccc(NC(=O)CCCNC(C)=O)c3)n2)c(-c2cccnc2)c1C#N [VI-130] | < 0.1 µM | < 0.1 µM
CSc1sc(-c2nc(Nc3cccc(O)c3)ncc2C)c(-c2cccnc2)c1C#N [Compound V-24] | – | < 0.1 µM
CSc1sc(-c2nc(Nc3cccc(OCCCN4CCOCC4)c3)ncc2C)c(-c2cccnc2)c1C#N [VI-117] | 0.1 to 1 µM | 0.1 to 1 µM
CSc1sc(-c2ccnc(Nc3cccc(O)c3)n2)c(-c2cccc(-c3ccncc3)c2)c1C#N [IIa-105, 5-[2-(3-Hydroxy-phenylamino)-pyrimidin-4-yl]-2-methylsulfanyl-4-(3-pyridin-4-yl-phenyl)-thiophene-3-carbonitrile] | – | < 0.1 µM
COCCNCCCOc1cccc(Nc2nccc(-c3sc(SC)c(C#N)c3C3CCCCC3)n2)c1 [VI-2] | – | < 0.1 µM
CSc1sc(-c2ccnc(Nc3cccc(OCCCO)c3)n2)c(-c2cccnc2)c1C#N [VI-121] | – | 0.1 to 1 µM
CSc1sc(-c2ccnc(Nc3cccc(OCCCNCCO)c3)n2)c(-c2cccc(OCc3ccccc3)c2)c1C#N [VI-132] | 0.1 to 1 µM | < 0.1 µM
CSc1sc(-c2ccnc(Nc3cccc(OCCCN4CCOCC4)c3)n2)c(C2CCCCC2)c1C#N [VI-15] | – | < 0.1 µM
